Results reported in patent US10143716B2, “Pawpaw and/or peach derived composition” (PHOENIX EAGLE COMPANY PTY LTD, priority 2002, dated 2018).
“Also recorded” adds a separate entry of the source.

Test system: PMR or poly-myalga-rheumatica
Assay: Example 19B: patient with PMR (poly-myalga-rheumatica), pain relief
Type: in vivo, human
Conditions: for pain relief: PMR pain in neck, shoulders, hands, knees and ankles

| SMILES | pain relief | side-effects (human, in vivo) |
| --- | --- | --- |
| CC(=O)Nc1ccc(O)cc1 [Panamax] | not effective to relieve their pain |  |
| Cc1ccc(-c2cc(C(F)(F)F)nn2-c2ccc(S(N)(=O)=O)cc2)cc1 [CELEBREX] | proved to be effective; also recorded: effective as a painkiller | did not cause the same side-effects; also recorded: adverse effect on the medication they were taking following a heart attack |
